Among the data in patent US20250171459A1, “2-METHYL-4',5'-DIHYDROSPIRO[PIPERIDINE-4,7'-THIENO[2,3-C]PYRAN] DERIVATIVES AS INHIBITORS OF APOL1 AND METHODS OF USING SAME” (Vertex Pharmaceuticals Incorporated, priority 2022, published 2025) are IC50 values, retold here.

Bounds are passed on as bounds.

In this experiment the target is T1, APOL1 (Homo sapiens, UniProt O14791).
T1 sequence (O14791 1-398 S342G/I384M): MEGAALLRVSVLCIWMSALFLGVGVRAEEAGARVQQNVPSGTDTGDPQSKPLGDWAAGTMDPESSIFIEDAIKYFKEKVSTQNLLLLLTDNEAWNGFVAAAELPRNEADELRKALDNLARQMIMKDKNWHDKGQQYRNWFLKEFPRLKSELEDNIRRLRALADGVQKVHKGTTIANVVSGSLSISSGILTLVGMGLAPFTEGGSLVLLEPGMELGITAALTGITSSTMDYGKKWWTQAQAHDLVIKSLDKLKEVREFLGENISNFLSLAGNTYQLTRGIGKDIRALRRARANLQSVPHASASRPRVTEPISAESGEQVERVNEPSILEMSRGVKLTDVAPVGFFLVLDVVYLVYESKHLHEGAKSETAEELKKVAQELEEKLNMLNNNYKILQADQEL
The experiment can be described thus: MultiTox-Fluor Multiplex Cytotoxicity Assay in tet-inducible APOL1 T-REx-HEK293 cells (cell rescue, ratio of dead to live cells). The class given is cell-based. Conditions: tet-inducible transgenic APOL1 T-REx-HEK293 cell lines, 50 ng/mL tet, 24 hours; read-out: IP50 (i.e., IC50 for cell proliferation). Summed up:
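T-REx-HEK293 cells with tet-inducible APOL1 were treated with compound (10 μM top, 10-point 3-fold dilution, duplicate) plus 50 ng/mL tetracycline for 24 h at 37° C, in DMEM with 2% tet-free FBS. MultiTox-Fluor protease signals gave a dead/live ratio, normalized to no tet (100% viability) and tet alone (0%).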
Consider `C[C@H]1C[C@@]2(CCN1Cc1cnn(CC3(CO)COC3)c1)OCCc1c2sc(C(F)(F)F)c1CO` [Compound 915], for which the IC50 was under 100 nM.

With `CNS(=O)(=O)CCn1cc(CN2CC[C@]3(C[C@@H]2C)OCCc2c3sc(C(F)(F)F)c2CO)cn1` [Compound 916], the IC50 is under 100 nM.

On to `C[C@H]1C[C@@]2(CCN1Cc1cnn(CC3CCNC(=O)C3)c1)OCCc1c2sc(C(F)(F)F)c1CO` (some centres unmarked) [Compound 917], for which the IC50 was under 100 nM.

On to `C[C@H]1C[C@@]2(CCN1Cc1cnn(C[C@H](O)CC#N)c1)OCCc1c2sc(C(F)(F)F)c1CO` [Compound 918], for which the IC50 was under 100 nM.

`C[C@H]1C[C@@]2(CCN1Cc1cnn(Cc3nnco3)c1)OCCc1c2sc(C(F)(F)F)c1CO` [Compound 919]: the IC50 is under 100 nM.

Regarding `C[C@H]1C[C@@]2(CCN1Cc1cnn(Cc3nnc[nH]3)c1)OCCc1c2sc(C(F)(F)F)c1CO` [Compound 920], the IC50 was in the range of 100 to 500 nM.

As for `C[C@H]1C[C@@]2(CCN1Cc1cnn(CC3CNC(=O)C3)c1)OCCc1c2sc(C(F)(F)F)c1CO` (some centres unmarked) [Compound 921], the IC50 is under 100 nM.

Take `C[C@H]1C[C@@]2(CCN1Cc1cnn(C[C@@H]3CCC(=O)N3)c1)OCCc1c2sc(C(F)(F)F)c1CO` [Compound 922]: the IC50 is under 100 nM.

`Cc1nnc(Cn2cc(CN3CC[C@]4(C[C@@H]3C)OCCc3c4sc(C(F)(F)F)c3CO)cn2)o1` [Compound 923]: the IC50 was under 100 nM.

On to `C[C@H]1C[C@@]2(CCN1Cc1cnn(CS(=O)(=O)N(C)C)c1)OCCc1c2sc(C(F)(F)F)c1CO` [Compound 924], for which the IC50 was under 100 nM.

For `CC(c1nnc[nH]1)n1cc(CN2CC[C@]3(C[C@@H]2C)OCCc2c3sc(C(F)(F)F)c2CO)cn1` (some centres unmarked) [Compound 925], the IC50 lay in the range of 100 to 500 nM.

As for `C[C@H]1C[C@@]2(CCN1Cc1cnn(CCC(N)=O)c1)OC[C@@H](O)c1cc(C(F)(F)F)sc12` [Compound 926], the IC50 is under 100 nM.

In the case of `C[C@H]1C[C@@]2(CCN1Cc1cnn(CCCC(N)=O)c1)OC[C@@H](O)c1cc(C(F)(F)F)sc12` [Compound 927], the IC50 is under 100 nM.

For the compound `C[C@H]1C[C@@]2(CCN1Cc1cnn(CC(=O)NC3CC3)c1)OC[C@@H](O)c1cc(C(F)(F)F)sc12` [Compound 928], the IC50 is under 100 nM.

`C=C(CO)n1cc(CN2CC[C@]3(C[C@@H]2C)OCCc2c3sc(C(F)(F)F)c2CO)cn1` [Compound 929, 2-[4-[[(2′S,7R)-3-(hydroxymethyl)-2′-methyl-2-(trifluoromethyl)spiro[4,5-dihydrothieno[2,3-c]pyran-7,4′-piperidine]-1′-yl]methyl]pyrazol-1-yl]prop-2-en-1-ol]: the IC50 was under 100 nM.

For `C[C@H]1C[C@@]2(CCN1Cc1cnn(CC(O)C3(O)CCOCC3)c1)OCCc1c2sc(C(F)(F)F)c1CO` (stereo partly drawn) [Compound 930, 4-[1-hydroxy-2-[4-[[(2′S, 7R)-3-(hydroxymethyl)-2′-methyl-2-(trifluoromethyl)spiro[4,5-dihydro-thieno[2,3-c]pyran-7,4′-piperidine]-1′-yl]methyl]pyrazol-1-yl]ethyl]tetrahydropyran-4-ol], the IC50 was under 100 nM.

Turning to `CC(O)Cn1cc(CN2CC[C@]3(C[C@@H]2C)OCCc2c3sc(C(F)(F)F)c2CO)cn1` (some centres unmarked) [Compound 931], the IC50 was under 100 nM.

`C[C@H]1C[C@@]2(CCN1Cc1cnn(CC(O)C(N)=O)c1)OCCc1c2sc(C(F)(F)F)c1CO` (some centres unmarked) [Compound 932]: the IC50 is under 100 nM.

Take `C[C@H]1C[C@@]2(CCN1Cc1cnn(CC(O)C3(O)COC3)c1)OCCc1c2sc(C(F)(F)F)c1CO` (some centres unmarked) [Compound 933]: the IC50 was under 100 nM.

For `C[C@H]1C[C@@]2(CCN1Cc1cnn(CC(O)CO)c1)OCCc1c2sc(C(F)(F)F)c1CO` (some centres unmarked) [Compound 934], the IC50 is under 100 nM.

As for `C[C@H]1C[C@@]2(CCN1Cc1cnn(CC(O)C3(CO)CCC3)c1)OCCc1c2sc(C(F)(F)F)c1CO` (some centres unmarked) [Compound 935], the IC50 was under 100 nM.

As for `C[C@H]1C[C@@]2(CCN1Cc1cnn(CC(C)(O)CO)c1)OCCc1c2sc(C(F)(F)F)c1CO` (some centres unmarked) [Compound 936], the IC50 is under 100 nM.

Take `C[C@H]1C[C@@]2(CCN1Cc1cnn(CC(O)c3ccc(F)cn3)c1)OCCc1c2sc(C(F)(F)F)c1CO` (some centres unmarked) [Compound 937]: the IC50 was under 100 nM.

As to `C[C@H]1C[C@@]2(CCN1Cc1cnn(CC(O)CC(C)(O)C3CC3)c1)OCCc1c2sc(C(F)(F)F)c1CO` (some centres unmarked) [Compound 938], the IC50 was under 100 nM.

For the compound `C[C@H]1C[C@@]2(CCN1Cc1cnn(CC(O)c3ccccn3)c1)OCCc1c2sc(C(F)(F)F)c1CO` (some centres unmarked) [Compound 939], the IC50 is under 100 nM.

Consider `C[C@H]1C[C@@]2(CCN1Cc1cnn(CC(O)C3(O)CCC3)c1)OCCc1c2sc(C(F)(F)F)c1CO` (some centres unmarked) [Compound 940], for which the IC50 is under 100 nM.

As to `C[C@H]1C[C@@]2(CCN1Cc1cnn(CC(O)C3(O)CCOC3)c1)OCCc1c2sc(C(F)(F)F)c1CO` (some centres unmarked) [Compound 941], the IC50 was under 100 nM.

`C[C@H]1C[C@@]2(CCN1Cc1cnn(CC(O)CC3(O)CCOC3)c1)OCCc1c2sc(C(F)(F)F)c1CO` (some centres unmarked) [Compound 942]: the IC50 is under 100 nM.

On to `C[C@H]1C[C@@]2(CCN1Cc1cnn(CC3(O)CCOCC3)c1)OCCc1c2sc(C(F)(F)F)c1CO` [Compound 943, 4-[[4-[[(2′S, 7R)-3-(hydroxymethyl)-2′-methyl-2-(trifluoromethyl)spiro[4,5-dihydrothieno[2,3-c]pyran-7,4′-piperidine]-1′-yl]methyl]pyrazol-1-yl]methyl]tetrahydropyran-4-ol], for which the IC50 is under 100 nM.

`C[C@H]1C[C@@]2(CCN1Cc1cnn(CC(O)C3CCC3)c1)OCCc1c2sc(C(F)(F)F)c1CO` (some centres unmarked) [Compound 944]: the IC50 is under 100 nM.

Consider `C[C@H]1C[C@@]2(CCN1Cc1cnn(CC(O)CC3(O)COC3)c1)OCCc1c2sc(C(F)(F)F)c1CO` (some centres unmarked) [Compound 945], for which the IC50 is under 100 nM.

With `C[C@H]1C[C@@]2(CCN1Cc1cnn(CC(O)C3CCCOC3)c1)OCCc1c2sc(C(F)(F)F)c1CO` (some centres unmarked) [Compound 946], the IC50 was under 100 nM.

With `C[C@H]1C[C@@]2(CCN1Cc1cnn(CC3(O)CCS(=O)(=O)CC3)c1)OCCc1c2sc(C(F)(F)F)c1CO` [Compound 947], the IC50 was under 100 nM.

Take `C[C@H]1C[C@@]2(CCN1Cc1cnn(CC3(O)CCC3)c1)OCCc1c2sc(C(F)(F)F)c1CO` [Compound 948]: the IC50 was under 100 nM.

For `C[C@H]1C[C@@]2(CCN1Cc1cnn(CC(O)CC(C)(C)O)c1)OCCc1c2sc(C(F)(F)F)c1CO` (some centres unmarked) [Compound 949], the IC50 was under 100 nM.

On to `C[C@H]1C[C@@]2(CCN1Cc1cnn(CC(O)CC3(C#N)CC3)c1)OCCc1c2sc(C(F)(F)F)c1CO` (some centres unmarked) [Compound 950], for which the IC50 was under 100 nM.

Turning to `C[C@H]1C[C@@]2(CCN1Cc1cnn(CC3(O)CCOC3=O)c1)OCCc1c2sc(C(F)(F)F)c1CO` (some centres unmarked) [Compound 951], the IC50 lay in the range of 500 to 1000 nM.

`C[C@H]1C[C@@]2(CCN1Cc1cnn(CC3(O)CCCOC3)c1)OCCc1c2sc(C(F)(F)F)c1CO` (some centres unmarked) [Compound 952]: the IC50 is under 100 nM.

For the compound `C[C@H]1C[C@@]2(CCN1Cc1cnn(CC(C)(O)C(F)F)c1)OCCc1c2sc(C(F)(F)F)c1CO` (some centres unmarked) [Compound 953], the IC50 was under 100 nM.

In the case of `C[C@H]1C[C@@]2(CCN1Cc1cnn(CC3(O)CC(C#N)C3)c1)OCCc1c2sc(C(F)(F)F)c1CO` (some centres unmarked) [Compound 954], the IC50 was under 100 nM.

As for `C[C@H]1C[C@@]2(CCN1Cc1cnn(CC(O)C3(O)CCCC3)c1)OCCc1c2sc(C(F)(F)F)c1CO` (some centres unmarked) [Compound 955], the IC50 is under 100 nM.

`CC(C)OC[C@@H](O)Cn1cc(CN2CC[C@]3(C[C@@H]2C)OCCc2c3sc(C(F)(F)F)c2CO)cn1` [Compound 956]: the IC50 is under 100 nM.

For `CCOCCC(O)Cn1cc(CN2CC[C@]3(C[C@@H]2C)OCCc2c3sc(C(F)(F)F)c2CO)cn1` (some centres unmarked) [Compound 957], the IC50 is under 100 nM.

Turning to `COCC(O)Cn1cc(CN2CC[C@]3(C[C@@H]2C)OCCc2c3sc(C(F)(F)F)c2CO)cn1` (some centres unmarked) [Compound 958], the IC50 is under 100 nM.

For the compound `C[C@H]1C[C@@]2(CCN1Cc1cnn(CC(O)C3CCOCC3)c1)OCCc1c2sc(C(F)(F)F)c1CO` (some centres unmarked) [Compound 959], the IC50 is under 100 nM.

As to `C[C@H]1C[C@@]2(CCN1Cc1cnn(CC(O)C(C)(C)O)c1)OCCc1c2sc(C(F)(F)F)c1CO` (some centres unmarked) [Compound 960], the IC50 is under 100 nM.

On to `C[C@H]1C[C@@]2(CCN1Cc1cnn(CC(O)CC3(O)CCC3)c1)OCCc1c2sc(C(F)(F)F)c1CO` (some centres unmarked) [Compound 961], for which the IC50 was under 100 nM.

Take `C[C@H]1C[C@@]2(CCN1Cc1cnn(CC(O)CC3(O)CCCC3)c1)OCCc1c2sc(C(F)(F)F)c1CO` (some centres unmarked) [Compound 962]: the IC50 was under 100 nM.

In the case of `C[C@H]1C[C@@]2(CCN1Cc1cnn(CC(O)CC(C)(C)C#N)c1)OCCc1c2sc(C(F)(F)F)c1CO` (some centres unmarked) [Compound 963], the IC50 is under 100 nM.

For `C[C@H]1C[C@@]2(CCN1Cc1cnn(CC(O)C3CCCO3)c1)OCCc1c2sc(C(F)(F)F)c1CO` (some centres unmarked) [Compound 964], the IC50 was under 100 nM.

For the compound `C[C@H]1C[C@@]2(CCN1Cc1cnn(CC(O)c3ccnn3C)c1)OCCc1c2sc(C(F)(F)F)c1CO` (some centres unmarked) [Compound 965], the IC50 was under 100 nM.

`COCCOCC(O)Cn1cc(CN2CC[C@]3(C[C@@H]2C)OCCc2c3sc(C(F)(F)F)c2CO)cn1` (some centres unmarked) [Compound 966]: the IC50 was under 100 nM.

On to `COCCC(O)Cn1cc(CN2CC[C@]3(C[C@@H]2C)OCCc2c3sc(C(F)(F)F)c2CO)cn1` (some centres unmarked) [Compound 967], for which the IC50 is under 100 nM.
